Source: PMC3691235, “Discovery of a Novel Dual Fungal CYP51/Human 5-Lipoxygenase Inhibitor: Implications for Anti-Fungal Therapy” (PLoS ONE, 2013)
Like-named read-outs stand apart in the source and are kept apart here.

Tests used:
[1] = target: T1, Human leukocyte 5-lipoxygenase (Homo sapiens, UniProt P09917); assay: Lipoxygenase UV-based inhibitor assay, 5-LOX; format: biochemical
T1 construct: made in house
T1 sequence (P09917 1-674): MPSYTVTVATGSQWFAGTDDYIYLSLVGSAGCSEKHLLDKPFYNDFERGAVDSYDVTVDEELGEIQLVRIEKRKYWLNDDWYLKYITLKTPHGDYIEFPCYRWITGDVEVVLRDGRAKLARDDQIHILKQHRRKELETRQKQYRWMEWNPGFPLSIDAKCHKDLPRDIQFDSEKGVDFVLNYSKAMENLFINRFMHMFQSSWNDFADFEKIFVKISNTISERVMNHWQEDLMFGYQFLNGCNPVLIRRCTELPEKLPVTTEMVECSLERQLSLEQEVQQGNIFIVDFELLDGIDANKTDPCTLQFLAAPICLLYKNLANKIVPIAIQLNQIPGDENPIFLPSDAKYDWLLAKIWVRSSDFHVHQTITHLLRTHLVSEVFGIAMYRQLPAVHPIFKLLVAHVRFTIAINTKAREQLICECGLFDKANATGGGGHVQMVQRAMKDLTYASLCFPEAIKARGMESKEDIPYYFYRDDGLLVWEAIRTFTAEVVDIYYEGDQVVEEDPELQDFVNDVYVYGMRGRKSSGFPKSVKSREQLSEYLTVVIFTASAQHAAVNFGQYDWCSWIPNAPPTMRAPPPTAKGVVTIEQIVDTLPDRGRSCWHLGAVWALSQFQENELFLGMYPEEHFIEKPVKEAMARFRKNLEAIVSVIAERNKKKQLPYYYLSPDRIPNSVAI
Procedure: (§1) Human leukocyte 5-lipoxygenase was expressed as a non-tagged protein and used as a crude ammonium sulfate protein fraction, as published previously.
(§2) Inhibitor potencies were evaluated through use of the standard UV-based inhibitor assay. The initial rates were determined by following the formation of the conjugated diene product at 234 nm (ε = 25,000 M^−1 cm^−1) with a Perkin-Elmer Lambda 40 UV/Vis spectrophotometer at one substrate concentration and varying inhibitor concentrations. All reactions were 2 mL in volume and constantly stirred using a magnetic stir bar at room temperature (23°C), with the enzyme specific buffer conditions outlined in Table 1. The substrate used for the various isozymes was arachidonic acid (AA) for 5-LOX, 12-LOX, and 15-LOX-2 and linoleic acid (LA) for 15-LOX-1, where concentrations were quantitatively determined by allowing the enzymatic reaction to go to completion. IC50 values were obtained by determining the initial rate at various inhibitor concentrations and plotting them against inhibitor concentration, followed by a hyperbolic saturation curve fit. The data used for the saturation curves were performed in duplicate or triplicate, depending on the quality of the data. […] Inhibitors were stored at −20°C in DMSO. […] The solvent isotope effect of the inhibitor IC50 was investigated utilizing the same conditions and methods as stated above. The pH of the buffered D2O was determined as reported previously.

5-LOX = target: T2, 5-LOX (Homo sapiens, UniProt P09917); assay: Pseudoperoxidase activity assay; format: biochemical; conditions: 10 µM inhibitor, 10 µM 13-HPODE, positive = loss of greater than 40% of product absorption at 234 nm
T2 construct: made in house
T2 sequence (P09917 1-674): T1 sequence (P09917 1-674)
Procedure: The reductive properties of the inhibitors were determined by monitoring the pseudoperoxidase activity of lipoxygenase in the presence of the inhibitor and 13-(S)-hydroperoxyoctadecadienoic acid (13-HPODE). Activity is monitored by direct measurement of the product degradation following the decrease of absorbance at 234 nm using a Perkin-Elmer Lambda 40 UV/Vis spectrometer (50 mM Sodium Phosphate (pH 7.4), 0.3 mM CaCl2, 0.1 mM EDTA, 0.01% Triton X100, 10 µM 13-HPODE). All reactions were performed in 2 mL of buffer and constantly stirred with a rotating stir bar (23°C). Reaction was initiated by addition of 10 µM inhibitor (a 1 to 1 ratio to 13-HPODE), and a positive result for activity reflected a loss of greater than 40% of product absorption at 234 nm.

[2] = target: T3, human prostate epithelial 15-lipoxygenase-2 (15-LOX-2) (Homo sapiens, UniProt O15296); assay: Lipoxygenase UV-based inhibitor assay, 15-LOX-2; format: biochemical; conditions: 30 µM AA, pH 7.5
T3 construct: His6 (N); made in house
T3 sequence (O15296 1-676): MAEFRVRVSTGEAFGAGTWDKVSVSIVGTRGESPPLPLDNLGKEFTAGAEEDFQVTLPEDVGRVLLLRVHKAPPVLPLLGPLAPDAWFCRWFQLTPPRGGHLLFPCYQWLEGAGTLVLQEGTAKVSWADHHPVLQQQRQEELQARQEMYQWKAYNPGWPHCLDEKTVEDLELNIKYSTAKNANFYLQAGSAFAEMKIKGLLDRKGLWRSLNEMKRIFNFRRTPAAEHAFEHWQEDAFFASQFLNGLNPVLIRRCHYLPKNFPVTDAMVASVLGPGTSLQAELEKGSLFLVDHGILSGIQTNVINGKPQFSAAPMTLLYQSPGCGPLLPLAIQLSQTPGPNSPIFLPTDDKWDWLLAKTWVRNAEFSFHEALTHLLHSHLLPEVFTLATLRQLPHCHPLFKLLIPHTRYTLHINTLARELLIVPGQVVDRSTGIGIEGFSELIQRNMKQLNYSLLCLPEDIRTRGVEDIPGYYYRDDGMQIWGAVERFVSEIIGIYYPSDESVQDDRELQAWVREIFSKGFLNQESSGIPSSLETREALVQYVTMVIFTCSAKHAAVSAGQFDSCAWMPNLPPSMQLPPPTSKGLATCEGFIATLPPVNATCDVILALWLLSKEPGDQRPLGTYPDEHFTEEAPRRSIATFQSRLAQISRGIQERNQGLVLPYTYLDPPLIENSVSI
Procedure: as §1, §2

[3] = test system: LTB4 synthesis in whole human blood; assay: Human blood LTB4 inhibition assay; format: cell-based; conditions: for inhibition at 10 µM: Homo sapiens, compounds at 10 µM, calcium ionophore stimulated, ELISA, error in parentheses
Procedure: Whole human blood was obtained from healthy volunteers from within the Student Health Center. These studies were approved by the UCSC Institutional Review Board (IRB) and informed consent was obtained from all donors before blood draw. The whole blood was dispensed in 150 µL samples followed by addition of inhibitor or control (vehicle, DMSO), and incubated for 15 min at 37°C. The mixture was then stimulated by introduction of the calcium ionophore, […], (freshly diluted from a 50 mM DMSO stock to 1.5 mM in Hanks balanced salt solution), and incubated for 30 min at 37°C. Samples were then centrifuged at 1,500 rpm (300 g) for 10 min at 4°C and the supernatant diluted between 20 and 50-fold (batch dependent) for LTB4 detection, using an ELISA detection kit (Cayman Chemicals Inc.).

[4] = UV-based assay, 10 µM AA, pH 7.3, crude enzyme, error = SD, read-out: 5-LOX IC50
[5] = UV-based assay, read-out: 5-LOX IC50

In the case of CC(C)(C)OC(=O)N1CCN(c2ccc(NCc3ccc(-c4ccc(C#N)cc4)o3)cc2)CC1 [Compound 1], the IC50 [1, 4] is reported as 170 nM, the “Reductive activity (pseudoperoxidase activity)” value (from here on “Reductive activity”) (5-LOX) is reported as “Yes” and the IC50 [2] is reported as over 150000 nM. For the same compound, the inhibition at 10 µM [3] was about 50%.
In the case of CC(=O)N1CCN(c2ccc(NCc3ccc(-c4cccc(Cl)c4)o3)cc2)CC1 [Compound 13], the “increase in 5-LOX IC50 in D2O relative to H2O (solvent isotope effect)” value ([1]; D2O buffer vs H2O) is reported as 2.4 fold, the IC50 [1, 4] is reported as 520 nM and the IC50 [2] is reported as over 50000 nM. For the same compound, the inhibition at 10 µM [3] was about 50%.
N#Cc1ccc(-c2ccc(CNc3ccc(N4CCCCC4)cc3)o2)cc1 [Compound 14] showed an IC50 [1, 4] of 330 nM and an IC50 [2] of 10000 nM.
With Cc1cc(C2CCCCC2)n(O)c(=O)c1 [ciclopirox, reference compound] the IC50 [1, 4] was 11000 ± 1000 nM and the inhibition at 10 µM [3] was 34%.
For CC(=O)N1CCN(c2ccc(NCC3COC(Cn4ccnc4)(c4ccc(Cl)cc4Cl)O3)cc2)CC1 (stereo not shown) [ketaminazole (16), ketaminazole], the “selectivity for 5-LOX over 12-LOX, 15-LOX-1, 15-LOX-2, COX-1 and COX-2” value [1] was “over 100 times”, the IC50 [1, 4] was 700 nM and the IC50 [1, 5] was 700 nM. The “Reductive activity” value (5-LOX) was “reductive inhibitor and Yes”, the IC50 [2] was over 150000 nM and the inhibition at 10 µM [3] was 45%. For the same compound, the “greater potency than ketoconazole in whole blood” value ([3]; whole human blood) was 2 fold.
CC(=O)N1CCN(c2ccc(OCC3COC(Cn4ccnc4)(c4ccc(Cl)cc4Cl)O3)cc2)CC1 (stereo not shown) [ketoconazole, reference compound] was tested, and the IC50 [1] was over 50000 nM, the “Reductive activity” value (5-LOX) was “No” and the IC50 [2] was over 150000 nM. It also gave an inhibition at 10 µM [3] of 25%.
In the case of CC[C@](O)(c1nnc(NCc2ccc3c(-c4ccc(F)cc4)cc(=O)oc3c2)o1)C(F)(F)F [setileuton, reference compound], the IC50 [1, 5] is reported as 60 ± 6 nM, the “Reductive activity” value (5-LOX) is reported as “non-reductive” and the “Reductive activity” value (5-LOX; listed as Setileuton) is reported as “No”. For the same compound, the IC50 [2] was over 150000 nM and the inhibition at 10 µM [3] was 100%.
